This experiment can be described thus: Odour Detection Threshold (ODT) / odour threshold. The settings on record: for ODT: Odour Detection Threshold, table of compounds of Formula I.

In turn, `CC/C=C/c1ccc2c(c1)OCC(=O)CO2` [Example 1, (1′E)-7-(But-1′-enyl)-2H-benzo[b][1,4]dioxepin-3(4H)-one] came in with an Odour threshold of 0.00157 ng/L air and an ODT of 0.00157 ng/L.

`CC(C)C/C=C/c1ccc2c(c1)OCC(=O)CO2` [Example 2, (1′E)-7-(4′-Methylpent-1′-enyl)-2H-benzo[b][1,4]dioxepin-3(4H)-one] had an Odour threshold of 0.00025 ng/L air and an ODT of 0.00025 ng/L.

Turning to `CC(C)/C=C/c1ccc2c(c1)OCC(=O)CO2` [Example 3, (1′E)-7-(3′-Methylbut-1′-enyl)-2H-benzo[b][1,4]dioxepin-3(4H)-one], the Odour threshold amounted to 0.015 ng/L air and the ODT is reported as 0.015 ng/L.

`C/C=C/C=C/c1ccc2c(c1)OCC(=O)CO2` [Example 4, (1′E,3′E)-7-(Penta-1′,3′-dienyl)-2H-benzo[b][1,4]dioxepin-3(4H)-one] had an Odour threshold of 0.000141 ng/L air and an ODT of 0.000141 ng/L.

`CCC/C=C/c1ccc2c(c1)OCC(=O)CO2` [Example 5, (1′E)-7-(Pent-1′-enyl)-2H-benzo[b][1,4]dioxepin-3(4H)-one] came in with an Odour threshold of 0.00314 ng/L air and an ODT of 0.00314 ng/L.

For `CC(C)(C)C/C=C/c1ccc2c(c1)OCC(=O)CO2` [Example 6, (1′E)-7-(4′,4′-Dimethylpent-1′-enyl)-2H-benzo[b][1,4]dioxepin-3(4H)-one], the Odour threshold is listed as 0.042 ng/L air and the ODT was 0.042 ng/L.

For `CC(C)=Cc1ccc2c(c1)OCC(=O)CO2` [Example 7, (1′E)-7-(2′-Methylprop-1′-enyl)-2H-benzo[b][1,4]dioxepin-3(4H)-one], the Odour threshold is given as 0.42 ng/L air and the ODT was 0.42 ng/L.

Compound `CCC(C)/C=C/c1ccc2c(c1)OCC(=O)CO2` (stereo not shown) [Example 8, (1′E)-7-(3′-Methylpent-1′-enyl)-2H-benzo[b][1,4]-dioxepin-3(4H)-one] had an Odour threshold of 0.021 ng/L air and an ODT of 0.021 ng/L.

The values are drawn from patent US20120309670A1, “7-(ALK-1'-ENYL)-2H-BENZO[B][1,4]DIOXEPIN-3(4H)-ONES AND THEIR USE IN FRAGRANCE APPLICATIONS” (Givaudan SA, priority 2010, published 2012).
